Literature values as cited in patent publication US12268783B2, “Platform drug delivery system utilizing crystal engineering and theanine dissolution” (THEAPRIN PHARMACEUTICALS, INC., priority 2015, dated 2025).

Tested on: Chironex fleckeri venom
Details: mice following venom injection

For zinc gluconate, the survival time is given as “prolonged survival time”.
